Tests used:
Vero cell = assay: Introduction of FITC-labeled oligonucleotide, fluorescence microscopy; type: cell-based, monkey; settings: 300 nM FITC-labeled oligonucleotide, 2.5 μM peptide
Method: Vero cell was inoculated in the well of a chamber slide (Lab-Tek II chamber slide, size 4 well, manufactured by NALGEN NUNC) at a rate of 1×10^5 cells/well, and the cells were cultivated in DMEM supplemented with 10% FBS in 5% CO2 atmosphere at 37° C. for 24 hours. After removing the medium, opti-MEM containing 300 nM FITC-labeled oligonucleotide prepared in Example 6 and 2.5 μM of the peptide of SEQ ID NO:1 prepared in Example 1 was added, and the cultivation was continued for 4 hours. The medium was replaced with DMEM supplemented with 10% FBS, and the cultivation was continued in 5% CO2 atmosphere at 37° C. for another 24 hours. After washing the cell with PBS, the cells were fixed by using PBS containing 4% paraformaldehyde, and accumulation of FITC-labeled oligonucleotide in the cell nucleus was confirmed by using a fluorescence microscope (AH-3, manufactured by Olympus). […] On the other hand, accumulation of FITC-labeled oligonucleotide in the cell was not confirmed in the absence of the peptide of SEQ ID NO:1.

nuclease Bal 31 = assay: Nuclease resistance-imparting ability for P=O form oligonucleotide; type: biochemical; settings: 2 U Bal 31, 30° C., 60 minutes, peptide 50 μM, oligonucleotide 3 μM
Method: Nuclease resistance-imparting ability for natural (P═O form) oligonucleotide was evaluated. To be more specific, 2 U of nuclease Bal 31 (manufactured by Takara Shuzo) was added to 20 mM Tris-HCl buffer (pH=8) containing 50 μM of the peptide of SEQ ID NO:1 prepared in Example 1, 3 μM of P═O form oligonucleotide prepared in Example 6, 150 mM NaCl, 12 mM MgCl2, and 12 mM CaCl2, and the reaction was allowed to take place at 30° C. for 60 minutes. Next, the oligonucleotide which escaped from the decomposition was extracted with phenol/chloroform, and subjected to electrophoresis by the procedure described in Example 8 to stain the oligonucleotide.

[1] = Measurement of CD spectrum; type: physicochemical; settings: aqueous solution solely containing an inorganic salt, pH 7, 35° C.
Method: The peptide dissolved in 10 mM phosphate buffer (pH=7) containing 50 mM NaCl was evaluated for its CD spectrum in the presence and in the absence of 5 mM SDS by using a circular dichroism spectrophotometer (J-500A, manufactured by JASCO). The cell length was 1 mm. The measurement was conducted at 35° C. for 6 times in total. FIGS. 7 to 9 are respectively views showing mean residue ellipticity in CD spectroscopy of the peptide of SEQ ID NO:1, the peptide of SEQ ID NO:4 and the peptide of SEQ ID NO:16. As evident in FIGS. 7 to 9, the mean residue ellipticity obtained in the presence of SDS was the so called W curve and local minimums were found in the areas at the wavelength of 205 to 210 nm and 220 to 225 nm, and α-helix structure was thereby confirmed.

[2] = Affinity by surface plasmon resonance (Biacore 2000), flow cell 2; type: binding; settings: SPR, HPA chip, 0.1 mg/mL BSA; compared with flow cell 1
Method: The specific affinity of the peptide for phosphatidyl serine was evaluated by means of surface plasmon resonance (SPR) using Biacore 2000 (manufactured by Biacore). To be more specific, phosphatidyl choline was immobilized on flow cell 1, and 50% of phosphatidyl serine and 50% of phosphatidyl choline were immobilized on flow cell 2 of HPA chip (manufactured by Biacore), and ability of the peptide to bind to the phospholipid was evaluated in the presence of 0.1 mg/mL BSA to thereby evaluate the affinity.

[3] = Affinity for phosphatidyl serine (EIA, inhibition of human Factor VIII binding); settings: class of IC50 for inhibiting human Factor VIII binding, 5% BSA
Method: The specific affinity of the peptide for phosphatidyl serine was evaluated by measuring activity of the peptide for inhibiting the binding of the human Factor VIII to phosphatidyl serine by using human Factor VIII which is known to bind to phosphatidyl serine but not to phosphatidyl choline in the presence of serum albumin. To be more specific, 100 μL of ethanol solution containing 10 μg/mL of phospholipids at a phosphatidyl serine (manufactured by SIGMA): phosphatidyl choline (manufactured by SIGMA) ratio of 3:7 was added to the wells of a 96 well plate (Immulon I, manufactured by Dynatech), and exsiccated by using a centrifugal evaporator (EC-95C, manufactured by Sakuma Seisakusho) at 40° C. for 40 minutes. 200 μL each of TBS (10 mM Tris-HCl (pH 7.4) containing 1% bovine serum albumin (BSA Fraction V, hereinafter referred to as BSA, manufactured by Seikagaku Corporation) and 0.9% (W/V) NaCl solution were added to each well, and the wells were blocked by allowing the plate to stand at 37° C. for 2.5 hours. After washing the plate with water, 100 μL of TBS solution supplemented with 5% BSA mixed with human Factor VIII (manufactured by American Diagnostica) at a final concentration 1 μg/mL and the peptide of predetermined dose prepared in Example 1 was added to each well, and the reaction was allowed to take place at 4° C. for 24 hours.
After the completion of the reaction, the human Factor VIII that became bound to the phosphatidyl serine was measured by enzyme immunoassay (EIA) in accordance with the general procedure described in a book (“Enzyme Immunoassay (3rd ed.)”, Eiji Ishikawa et al., Igaku-Shoin, 1987). To be more specific, the measurement was conducted by using anti-human Factor VIII mouse monoclonal antibody (ESH8, manufactured by American Diagnostica) for the primary antibody, horseradish peroxidase-labeled anti-mouse IgG antibody (P0260, manufactured by Daco) for the secondary antibody, and tetramethylbenzidine for the chromogenic substrate, and measuring the absorption at a wavelength of 450 nm by using a reference wavelength of 630 nm on a spectrophotometer (NJ-2100, manufactured by Intermed).
Intensity of the affinity of the peptide for the phosphatidyl serine was evaluated by using the value obtained by subtracting the absorption of the well having no human Factor VIII added thereto from the absorption of the well having only the human Factor VIII added thereto as the control value (100%), and designating the peptide concentration at which the value 0.5 was obtained when the value obtained by subtracting the absorption of the well having only the peptide added thereto from the absorption of the well having a mixture of the human Factor VIII and the peptide added thereto were divided by the control value as the IC50 value, and evaluating the intensity to be ++ when the IC50 value was up to 1 μM, and +when the intensity was more than 1 μM but not more than 10 μM. It is to be noted that the specific affinity was evaluated to be none when the intensity was 10 μM or more.

IC50 [3]: < 1 µM
Substance: SEQ ID NO: 1: peptide having the amino acid sequence of SEQ ID NO:1, made by solid phase synthesis (TRYLRIHPRSWVHQIALRLRYLRIHPRSWVHQIALRS; synthetic peptide using an automatic peptide synthesizer)
accumulation of FITC-labeled oligonucleotide in the cell nucleus (Vero cell): FITC-labeled oligonucleotide was accumulated in the cell nucleus
nuclease resistance-imparting ability for natural (P═O form) oligonucleotide (nuclease Bal 31): found to exhibit nuclease resistance-imparting ability
α-helix structure in CD spectrum in the absence of SDS [1]: do not take α-helix structure
binding to flow cell 2 (50% phosphatidyl serine, 50% phosphatidyl choline) [2]: stronger
